# Experiments:
# [1] = tested on: human CYP1A2; details: ref Shimada et al. [26]; cited from earlier work
# [2] = tested on: rat pheochromocytoma PC12 cells; details: limited supply of serum and hydrogen peroxide, ref Hong et al. [14]; cited from earlier work
# [3] = tested on: isolated rat hepatocytes; experiment: Lactate dehydrogenase; format: cell-based; details: 60 μM, hepatocytes incubation, vs control
# [4] = tested on: isolated rat hepatocytes; experiment: Malondialdehyde; format: cell-based; details: 60 μM, hepatocytes incubation, vs control
# [5] = tested on: isolated rat hepatocytes; experiment: Trypan blue exclusion; details: 60 μM, hepatocytes incubation, vs control
# [6] = tested on: isolated rat hepatocytes; experiment: Glutathione; format: cell-based; details: 60 μM, hepatocytes incubation, vs control
compound,measurement,setting,value
O=c1c(O)c(-c2ccc(O)cc2)oc2cc(O)cc(O)c12 [kaempferol],inhibitory activity on human CYP1A2,[1],inhibitory activity
same,protective effects on oxidative damage,[2],protective effects
O=P1(N(CCCl)CCCl)NCCCO1 (stereo not drawn) [Cyclophosphamide],increased LDH leakage,[3],100%
same,increased MDA level,[4],184%
same,reduction of cell viability,[5],43%
same,depletion of cell GSH,[6],72%
Cn1c(CCCC(=O)O)nc2cc(N(CCCl)CCCl)ccc21 [Bendamustine],increased LDH leakage,[3],59%
same,increased MDA level,[4],194%
same,reduction of cell viability,[5],33%
same,depletion of cell GSH,[6],76%
"COc1cc(O)c2c(=O)c(O)c(-c3ccc(O)cc3)oc2c1 [rhamnocitrin, kempferol 7-O-methyl ether]",protective effects on oxidative damage,[2],protective effects
O=c1cc(-c2ccccc2)oc2cc(O)cc(O)c12 [chrysin],inhibitory activity on human CYP1A2,[1],inhibitory activity
O=c1c(-c2ccc(O)cc2)coc2cc(O)cc(O)c12 [genistein],inhibitory activity on human CYP1A2,[1],inhibitory activity
O=c1c(O)c(-c2ccccc2)oc2cc(O)cc(O)c12 [galangin],inhibitory activity on human CYP1A2,[1],inhibitory activity
O=c1cc(-c2ccc(O)cc2)oc2cc(O)cc(O)c12 [apigenin],inhibitory activity on human CYP1A2,[1],inhibitory activity

# Source: paper PMC4189262 (Pharmacognosy Magazine, 2014)
